Test results from patent publication US20240391871A1, “SUBSTITUTED HYDROXYMETHYL PYRROLIDINES AND MEDICAL USES THEREOF” (ATROGI AB, priority 2021, published 2024).

Tests used:
Format in all cases: cell-based
[1] = tested on: Intracellular cAMP levels; test: Measurement of intracellular cAMP levels in differentiated L6 cells; conditions: compound 1×10^−5 M, 15 min
Description: (§1) L6-myoblasts were grown in Dulbecco's Modified Eagle's Medium (DMEM) containing 1 g/L glucose supplemented with 10% fetal bovine serum, 2 mM L-Glutamine, 50 U/mL penicillin, 50 μg/mL streptomycin and 10 mM HEPES. Cells were plated at 1×10^5 cells per mL in 24-well plates. After reaching 90% confluence the cells were grown in medium containing 2% FBS for 7 days where upon cells differentiated into myotubes.
Differentiated cells were serum-starved overnight and stimulated with an agonist, final concentration 1×10^−5 M, for 15 min in stimulation buffer (HBSS supplemented with 1% BSA, 5 mM HEPES and 1 mM IBMX, pH 7.4). The medium was aspirated and 100 μL of 95% EtOH was added to each well of the 24-well plate and cells were kept at −20° C. overnight. The EtOH was allowed to evaporate and 500 μL of lysis buffer (1% BSA, 5 mM HEPES and 0.3% Tween-20, pH 7.4) was added to each well. The plate was kept at −80° C. for 30 min and then at −20° C. until the day of detection when the samples were thawed. Intracellular cAMP levels were detected using an alpha screen cAMP kit (6760635D from Perkin Elmer). The activity for each compound is compared to that of isoproterenol.

[2] = tested on: L6-myotubes; test: Glucose uptake (3H-2-deoxyglucose) in differentiated L6-myotubes; conditions: compound 1×10^−5 M
Description: as §1
Differentiated L6-myotubes were serum-starved overnight in medium containing 0.5% fatty-acid free BSA and stimulated with an agonist, with a final concentration of 1×10^−5 M. After 1 h 40 min the cells were washed with warm glucose free medium or PBS twice and another portion of agonist was added to the glucose free medium. After 20 min the cells were exposed to 50 nM ^3H-2-deoxyglucose for 10 min before washed with ice cold glucose free medium or PBS three times and lysed with 0.2 M NaOH, 400 μL/well, for 1 h at 60° C. The cell lysate was mixed with 4 mL scintillation buffer (Emulsifier Safe, Perkin Elmer) and the radioactivity was detected in a β-counter (Tri-Carb 4810TR, Perkin Elmer). The activity for each compound is compared to that of isoproterenol.

[3] = tested on: L6-myotubes; test: Glucose uptake in L6-myotubes in the presence of the β2-antagonist ICI-118,551; conditions: compound 1×10^−5 M, ICI-118,551 1×10^−5 M
Description: as §1
Differentiated L6-myotubes were serum-starved overnight in medium containing 0.5% fatty-acid free BSA and were incubated with the β2-adrenergic receptor antagonist ICI-118,551 at a final concentration of 1×10^−5 M for 30 min. The cells were stimulated with a compound of the invention, at a final concentration of 1×10^−5 M. After 1 h 40 min the cells were washed twice with warm, glucose free medium or PBS and additional portions of the compound of the invention and the antagonist were added. After 20 min the cells were exposed to 50 nM ^3H-2-deoxyglucose for 10 min before washed with ice cold glucose free medium or PBS three times and lysed with 0.2 M NaOH, 400 μL/well, for 1 h at 60° C. The cell lysate was mixed with 4 mL scintillation buffer (Emulsifier Safe, Perkin Elmer) and the radioactivity was detected in a β-counter (Tri-Carb 4810TR, Perkin Elmer). The activity for each compound is compared to that of isoproterenol.

| Structure (SMILES) | Biological example 2: intracellular cAMP levels, activity compared to that of isoproterenol [1] | Biological example 1: glucose uptake, activity compared to that of isoproterenol [2] | Biological example 3: glucose uptake in the presence of the β2-antagonist ICI-118,551, activity compared to that of isoproterenol [3] |
| --- | --- | --- | --- |
| CO[C@H]1CC[C@H](C[C@@H]2CC[C@H]([C@@H](O)c3cccc(F)c3)N2)CC1.Cl [Example 2, (S)-(3-Fluorophenyl)((2R,5S)-5-(((1r,4S)-4-methoxycyclohexyl) -methyl)pyrrolidin-2-yl)methanol hydrochloride] | − (less than 25%) | +++ (more than 75% of that of isoproterenol) | − (less than 25%) |
| CO[C@H]1CC[C@H](C[C@@H]2CC[C@H]([C@H](O)c3cccc(F)c3)N2)CC1.Cl [Example 1, (R)-(3-Fluorophenyl)((2R,5S)-5-(((1r,4S)-4-methoxycyclohexyl)methyl) -pyrrolidin-2-yl)methanol hydrochloride] | − (less than 25%) | +++ (more than 75% of that of isoproterenol) | − (less than 25%) |
| CO[C@H]1CC[C@H](C[C@H]2CC[C@H]([C@H](O)c3cccc(F)c3)N2)CC1.Cl [Example 3, (R)-(3-Fluorophenyl)((2R,5R)-5-(((1r,4R)-4-methoxycyclohexyl)-methyl) -pyrrolidin-2-yl)methanol hydrochloride] | − (less than 25%) | +++ (more than 75% of that of isoproterenol) | − (less than 25%) |
